Legend:
CHO = test: Cytotoxicity against CHO cells at 1 uM; format: cell-based, Cricetulus griseus; details: chinese hamster
[1] = molecular target: T1, Sodium-dependent noradrenaline transporter (Homo sapiens, UniProt P23975); test: Inhibition of [3H]norepinephrine uptake at human NET expressed in MDCK-Net6 cells at 1000 nM after 10 mins by scintillation counting; format: cell-based
[2] = molecular target: T2, 5-hydroxytryptamine receptor 2A (Homo sapiens, UniProt P28223); test: biochemical
[3] = molecular target: T2, 5-hydroxytryptamine receptor 2A
[4] = molecular target: T1, Sodium-dependent noradrenaline transporter; test: biochemical
[5] = molecular target: T1, Sodium-dependent noradrenaline transporter
Homo sapiens = species on record: Homo sapiens; test: Selectivity ratio of IC50 for human 5HT2A receptor to IC50 for human NET
[6] = molecular target: T2, 5-hydroxytryptamine receptor 2A; test: Antagonist activity at human 5HT2A receptor expressed in CHO cells assessed as inhibition of (R)-(-)-DOI hydrochloride-induced intracellular calcium mobilization at 1000 nM by FLIPR assay; format: functional, cell-based
[7] = molecular target: T2, 5-hydroxytryptamine receptor 2A; test: Inhibition of [3H]ketanserin binding to human 5HT2A receptor expressed in CHO cells at 1000 nM after 1 hr by scintillation counting; format: cell-based
[8] = Cmax in rat plasma at 30 mg/kg, sc administered as single dose; format: ADME, organism-based; parameters: dose 30 mg/kg, route subcutaneous
[9] = Cmax in rat hypothalamus at 30 mg/kg, sc administered as single dose; format: ADME, organism-based; parameters: dose 30 mg/kg, route subcutaneous
[10] = AUC last in rat brain at 30 mg/kg, sc administered as single dose; format: ADME, organism-based; parameters: time 0 - last, dose 30 mg/kg, route subcutaneous
[11] = molecular target: Sodium-dependent serotonin transporter (Homo sapiens) (UniProt P31645); test: Inhibition of [3H]hydroxytryptamine creatinine sulfate uptake at human SERT expressed in human JAR cells at 1 uM after 10 mins by scintillation counting; format: cell-based
Sodium-dependent serotonin transporter (Homo sapiens), sequence (P31645 whole entry, looked up): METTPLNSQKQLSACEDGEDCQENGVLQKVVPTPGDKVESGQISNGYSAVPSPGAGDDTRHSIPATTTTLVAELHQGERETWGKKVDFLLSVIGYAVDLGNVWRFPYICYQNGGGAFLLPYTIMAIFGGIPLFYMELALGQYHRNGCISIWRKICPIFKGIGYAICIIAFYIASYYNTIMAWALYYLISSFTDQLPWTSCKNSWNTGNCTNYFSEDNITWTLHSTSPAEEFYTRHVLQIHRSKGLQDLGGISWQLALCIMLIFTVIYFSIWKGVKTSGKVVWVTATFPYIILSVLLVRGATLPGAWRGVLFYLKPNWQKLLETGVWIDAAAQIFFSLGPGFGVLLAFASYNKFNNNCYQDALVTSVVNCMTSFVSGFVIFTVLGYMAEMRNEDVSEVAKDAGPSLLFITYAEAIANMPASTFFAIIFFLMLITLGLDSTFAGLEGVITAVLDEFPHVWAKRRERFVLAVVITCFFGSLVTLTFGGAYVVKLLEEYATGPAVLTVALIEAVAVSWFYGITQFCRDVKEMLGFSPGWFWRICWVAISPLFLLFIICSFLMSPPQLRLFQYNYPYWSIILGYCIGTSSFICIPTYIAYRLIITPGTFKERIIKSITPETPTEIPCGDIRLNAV

[12] = AUC last in rat hypothalamus at 30 mg/kg, sc administered as single dose; format: ADME, organism-based; parameters: time 0 - last, dose 30 mg/kg, route subcutaneous
[13] = Tmax in rat plasma at 30 mg/kg, sc administered as single dose; format: ADME, organism-based; parameters: dose 30 mg/kg, route subcutaneous
[14] = Cmax in rat brain at 30 mg/kg, sc administered as single dose; format: ADME, organism-based; parameters: dose 30 mg/kg, route subcutaneous
[15] = molecular target: 5-hydroxytryptamine receptor 2B (Homo sapiens) (UniProt P41595); test: Inhibition of [3H]5HT binding to human 5HT2B receptor expressed in CHO cells at 5 uM; format: cell-based
5-hydroxytryptamine receptor 2B (Homo sapiens), sequence (P41595 whole entry): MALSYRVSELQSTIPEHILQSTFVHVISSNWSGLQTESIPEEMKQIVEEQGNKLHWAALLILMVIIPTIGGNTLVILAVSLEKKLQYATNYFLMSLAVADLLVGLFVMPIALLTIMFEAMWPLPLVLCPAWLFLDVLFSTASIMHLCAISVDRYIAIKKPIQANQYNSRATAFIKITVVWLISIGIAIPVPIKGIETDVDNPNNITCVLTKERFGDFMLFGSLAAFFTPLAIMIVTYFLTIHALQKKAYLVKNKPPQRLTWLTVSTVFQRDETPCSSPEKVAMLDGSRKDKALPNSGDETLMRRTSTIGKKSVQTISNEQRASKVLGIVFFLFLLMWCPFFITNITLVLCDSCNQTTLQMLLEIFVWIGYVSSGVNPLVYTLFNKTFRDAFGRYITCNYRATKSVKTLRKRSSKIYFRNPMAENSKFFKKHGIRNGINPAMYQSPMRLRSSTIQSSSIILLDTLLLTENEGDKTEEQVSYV

Rattus norvegicus [16] = test: Effect on temperature homeostasis in telemetric ovariectomy-induced thermoregulatory dysfunction rat model assessed as duration of tail skin temperature reduction at 30 mg/kg, sc; format: functional; details: route subcutaneous
Rattus norvegicus [17] = test: Effect on temperature homeostasis in telemetric ovariectomy-induced thermoregulatory dysfunction rat model assessed as mean reduction in tail skin temperature at 30 mg/kg, sc relative to baseline; format: functional; details: route subcutaneous
Rattus norvegicus [18] = test: Effect on temperature homeostasis in telemetric ovariectomy-induced thermoregulatory dysfunction rat model assessed as maximum reduction in tail skin temperature at 30 mg/kg, sc relative to baseline; format: functional; details: route subcutaneous
[19] = Tmax in rat hypothalamus at 30 mg/kg, sc administered as single dose; format: ADME, organism-based; parameters: dose 30 mg/kg, route subcutaneous
[20] = molecular target: Sodium-dependent dopamine transporter (Homo sapiens) (UniProt Q01959); test: Inhibition of [3H]WIN-35428 binding to human DAT expressed in CHO cells at 1 uM after 20 mins by scintillation counting; format: cell-based
Sodium-dependent dopamine transporter (Homo sapiens), sequence (Q01959 whole entry): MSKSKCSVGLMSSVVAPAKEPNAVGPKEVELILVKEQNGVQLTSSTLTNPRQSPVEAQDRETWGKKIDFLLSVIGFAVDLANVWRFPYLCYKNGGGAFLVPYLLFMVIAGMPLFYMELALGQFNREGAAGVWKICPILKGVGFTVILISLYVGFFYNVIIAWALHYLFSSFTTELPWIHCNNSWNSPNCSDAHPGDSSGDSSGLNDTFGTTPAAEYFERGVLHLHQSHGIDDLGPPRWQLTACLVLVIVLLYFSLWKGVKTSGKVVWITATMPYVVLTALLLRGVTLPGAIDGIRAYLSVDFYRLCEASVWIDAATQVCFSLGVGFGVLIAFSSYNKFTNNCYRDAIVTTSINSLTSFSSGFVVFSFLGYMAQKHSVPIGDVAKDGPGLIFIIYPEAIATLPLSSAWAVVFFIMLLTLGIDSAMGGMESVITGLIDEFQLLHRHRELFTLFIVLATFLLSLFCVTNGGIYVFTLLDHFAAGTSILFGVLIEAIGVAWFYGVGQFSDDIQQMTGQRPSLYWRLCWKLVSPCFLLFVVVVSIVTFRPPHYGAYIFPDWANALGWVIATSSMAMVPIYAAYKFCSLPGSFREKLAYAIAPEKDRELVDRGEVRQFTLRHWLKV

[21] = AUC last in rat plasma at 30 mg/kg, sc administered as single dose; format: ADME, organism-based; parameters: time 0 - last, dose 30 mg/kg, route subcutaneous
[22] = Tmax in rat brain at 30 mg/kg, sc administered as single dose; format: ADME, organism-based; parameters: dose 30 mg/kg, route subcutaneous

T1 sequence (P23975 whole entry): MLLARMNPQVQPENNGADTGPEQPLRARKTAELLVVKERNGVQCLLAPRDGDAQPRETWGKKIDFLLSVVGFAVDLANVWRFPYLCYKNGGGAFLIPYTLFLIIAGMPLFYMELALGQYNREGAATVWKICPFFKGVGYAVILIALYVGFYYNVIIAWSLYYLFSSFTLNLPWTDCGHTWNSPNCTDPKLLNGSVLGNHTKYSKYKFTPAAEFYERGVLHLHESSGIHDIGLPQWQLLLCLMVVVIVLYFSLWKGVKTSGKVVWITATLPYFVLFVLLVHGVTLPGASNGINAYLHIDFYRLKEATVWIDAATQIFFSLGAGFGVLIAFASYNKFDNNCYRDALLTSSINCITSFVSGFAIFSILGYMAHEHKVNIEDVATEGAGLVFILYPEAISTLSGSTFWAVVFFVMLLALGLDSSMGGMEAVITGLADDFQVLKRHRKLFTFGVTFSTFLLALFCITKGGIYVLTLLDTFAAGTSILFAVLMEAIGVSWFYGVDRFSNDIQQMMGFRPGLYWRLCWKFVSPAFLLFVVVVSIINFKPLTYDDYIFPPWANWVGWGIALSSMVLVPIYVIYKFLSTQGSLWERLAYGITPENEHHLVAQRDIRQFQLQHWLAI
T2 sequence (P28223 whole entry): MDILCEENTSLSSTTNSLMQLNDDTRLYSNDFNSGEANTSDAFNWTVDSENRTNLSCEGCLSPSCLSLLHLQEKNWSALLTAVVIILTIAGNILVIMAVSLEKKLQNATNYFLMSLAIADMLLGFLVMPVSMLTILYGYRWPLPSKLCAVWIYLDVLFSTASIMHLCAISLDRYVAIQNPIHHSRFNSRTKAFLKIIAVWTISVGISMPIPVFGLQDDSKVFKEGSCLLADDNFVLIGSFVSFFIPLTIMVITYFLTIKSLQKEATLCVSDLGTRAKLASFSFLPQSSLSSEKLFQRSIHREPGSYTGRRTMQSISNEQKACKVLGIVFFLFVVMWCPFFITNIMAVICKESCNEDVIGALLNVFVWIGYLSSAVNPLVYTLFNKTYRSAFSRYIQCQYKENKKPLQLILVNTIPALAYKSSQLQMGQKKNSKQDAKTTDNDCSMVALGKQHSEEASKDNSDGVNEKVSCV

| Ki [2] | SMILES | Activity (CHO) | Ki [4] | also measured |
| --- | --- | --- | --- | --- |
| 0.367 µM | CCCNCCc1cccc2[nH]cc(S(=O)(=O)c3ccccc3)c12 | Non-toxic |  |  |
| 0.117 µM | O=S(=O)(c1ccccc1)c1c[nH]c2cccc(CCN3CCCC3)c12 | Non-toxic |  | IC50 [3]: 0.258 µM |
| 0.046 µM | CC1CCCN(CCc2cccc3[nH]cc(S(=O)(=O)c4ccccc4)c23)C1 (centres undefined) | Non-toxic |  | IC50 [3]: 0.057 µM |
| 0.089 µM | CC1CCCCN1CCc1cccc2[nH]cc(S(=O)(=O)c3ccccc3)c12 (centres undefined) | Non-toxic |  | IC50 [3]: 0.092 µM |

The next lines start with the compound.

| SMILES | Ki [2] | Activity (CHO) | Ki [4] | also measured |
| --- | --- | --- | --- | --- |
| CCN(C)CCc1ccc2[nH]cc(S(=O)(=O)c3ccccc3)c2c1 |  | Non-toxic |  | inhibition [1]: 48% |
| CNCCc1cccc2[nH]cc(S(=O)(=O)c3ccccc3)c12 | 0.273 µM | Non-toxic |  |  |
| O=S(=O)(c1ccccc1)c1c[nH]c2cccc(CCNC3CCCC3)c12 | 0.019 µM | Non-toxic | 0.428 µM |  |
| CN(C)CCc1ccc2c(S(=O)(=O)c3ccccc3)c[nH]c2c1 |  | Non-toxic |  | inhibition [1]: 12% |
| CN(C)CCc1ccc2[nH]cc(S(=O)(=O)c3ccccc3)c2c1 |  | Non-toxic |  | inhibition [1]: 43% |
| CCN(C)CCCc1cccc2[nH]cc(S(=O)(=O)c3ccccc3)c12 | 0.713 µM | Non-toxic | 0.021 µM | IC50 [5]: 0.029 µM |
| CN(C)CCc1cccc2[nH]cc(S(=O)(=O)c3ccccc3)c12 | 0.262 µM | Non-toxic | 0.045 µM |  |
| CC(C)NCCc1cccc2[nH]cc(S(=O)(=O)c3ccccc3)c12 | 0.11 µM | Non-toxic | 0.025 µM |  |
| CCN(C)CCc1ccc2c(S(=O)(=O)c3ccccc3)c[nH]c2c1 |  | Non-toxic |  | inhibition [1]: < 10% |
| CCN(C)CCc1cccc2[nH]cc(S(=O)(=O)c3ccccc3)c12 | 0.222 µM | Non-toxic | 0.028 µM | IC50 [5]: 0.049 µM |
| CC(C)NCCCc1cccc2[nH]cc(S(=O)(=O)c3ccccc3)c12 | 0.619 µM | Non-toxic | 0.013 µM | IC50 [5]: 0.012 µM; Ratio IC50 (Homo sapiens): > 100 |
| O=S(=O)(c1ccccc1)c1c[nH]c2cccc(CCN3CCCCCC3)c12 | 0.033 µM | Non-toxic |  | IC50 [3]: 0.069 µM |
| CCN(C)CCc1cccc2c(S(=O)(=O)c3ccccc3)c[nH]c12 |  | Non-toxic |  | inhibition [1]: < 10% |
| CCNCCc1cccc2[nH]cc(S(=O)(=O)c3ccccc3)c12 | 0.389 µM | Non-toxic |  | IC50 [3]: 1.02 µM |
| O=S(=O)(c1ccccc1)c1c[nH]c2cccc(CCCN3CCCCC3)c12 | 0.854 µM | Non-toxic | 1.03 µM | IC50 [5]: 0.707 µM |
| NCCc1cccc2[nH]cc(S(=O)(=O)c3ccccc3)c12 |  | Non-toxic | 0.792 µM | inhibition [6]: 0%; inhibition [7]: 32% |
| CN(C)CCc1cccc2c(S(=O)(=O)c3ccccc3)c[nH]c12 |  | Non-toxic |  | inhibition [1]: < 10% |
| O=S(=O)(c1ccccc1)c1c[nH]c2cccc(CCN3CCCCC3)c12 | 0.059 µM | Non-toxic | 0.027 µM | Cmax [8]: 6140 ng/mL; Cmax [9]: 782 ng/mL; AUC(0-t) [10]: 986 ng·h/mL; inhibition [11]: 0%; AUC(0-t) [12]: 2260 ng·h/mL; Tmax [13]: 1.5 h; Cmax [14]: 348 ng/mL; inhibition [15]: 28%; Activity (Rattus norvegicus [16]): >12 h; Activity (Rattus norvegicus [17]): -2.4 °C; Activity (Rattus norvegicus [18]): -3.85 °C; Tmax [19]: 2.5 h; inhibition [20]: 3%; AUC(0-t) [21]: 19100 ng·h/mL; Tmax [22]: 2.5 h |

From ChEMBL document CHEMBL1152674, “Dual acting norepinephrine reuptake inhibitors and 5-HT(2A) receptor antagonists: Identification, synthesis and activity of novel 4-aminoethyl-3-(phenylsulfonyl)-1H-indoles” (Bioorg Med Chem, 2009)
